In ChEMBL document CHEMBL5678818, “Discovery of potent SOS1 inhibitors that block RAS activation via disruption of the RAS-SOS1 interaction” (Proc Natl Acad Sci U S A, 2019):

Legend:
[1] = biological target: T1, Ankyrin repeat and protein kinase domain-containing protein 1 (Homo sapiens) (UniProt Q8NFD2); test: Inhibition of ANKK1 (unknown origin) assessed as residual activity at 1000 nM by KINOMEscan analysis relative to control
T1 sequence (whole entry): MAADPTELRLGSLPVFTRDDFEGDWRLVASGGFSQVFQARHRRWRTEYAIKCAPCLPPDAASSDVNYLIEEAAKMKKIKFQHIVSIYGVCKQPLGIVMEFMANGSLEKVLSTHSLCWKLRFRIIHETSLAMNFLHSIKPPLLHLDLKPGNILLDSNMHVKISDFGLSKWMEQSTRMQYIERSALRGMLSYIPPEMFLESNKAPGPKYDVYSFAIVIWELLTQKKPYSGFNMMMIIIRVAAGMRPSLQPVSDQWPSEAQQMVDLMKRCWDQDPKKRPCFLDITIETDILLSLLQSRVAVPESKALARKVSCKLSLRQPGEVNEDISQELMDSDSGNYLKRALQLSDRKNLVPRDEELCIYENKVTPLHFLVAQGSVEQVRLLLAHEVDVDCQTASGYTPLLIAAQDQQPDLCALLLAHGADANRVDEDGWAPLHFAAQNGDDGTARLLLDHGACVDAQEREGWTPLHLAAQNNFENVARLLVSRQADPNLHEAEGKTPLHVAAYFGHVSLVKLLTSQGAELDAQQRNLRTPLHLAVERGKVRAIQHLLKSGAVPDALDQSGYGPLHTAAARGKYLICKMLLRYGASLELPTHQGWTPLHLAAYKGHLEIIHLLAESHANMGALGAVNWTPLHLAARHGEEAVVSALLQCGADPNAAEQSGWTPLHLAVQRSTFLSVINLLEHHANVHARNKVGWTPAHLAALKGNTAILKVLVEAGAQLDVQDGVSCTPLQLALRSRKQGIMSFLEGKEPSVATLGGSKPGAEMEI

[2] = biological target: Protein-tyrosine kinase 6 (Homo sapiens) (UniProt Q13882); test: Inhibition of BRK (unknown origin) assessed as residual activity at 1000 nM by KINOMEscan analysis relative to control
[3] = biological target: T2, Ephrin type-A receptor 8 (Homo sapiens) (UniProt P29322); test: Inhibition of EPHA8 (unknown origin) assessed as residual activity at 1000 nM by KINOMEscan analysis relative to control
T2 sequence (whole entry): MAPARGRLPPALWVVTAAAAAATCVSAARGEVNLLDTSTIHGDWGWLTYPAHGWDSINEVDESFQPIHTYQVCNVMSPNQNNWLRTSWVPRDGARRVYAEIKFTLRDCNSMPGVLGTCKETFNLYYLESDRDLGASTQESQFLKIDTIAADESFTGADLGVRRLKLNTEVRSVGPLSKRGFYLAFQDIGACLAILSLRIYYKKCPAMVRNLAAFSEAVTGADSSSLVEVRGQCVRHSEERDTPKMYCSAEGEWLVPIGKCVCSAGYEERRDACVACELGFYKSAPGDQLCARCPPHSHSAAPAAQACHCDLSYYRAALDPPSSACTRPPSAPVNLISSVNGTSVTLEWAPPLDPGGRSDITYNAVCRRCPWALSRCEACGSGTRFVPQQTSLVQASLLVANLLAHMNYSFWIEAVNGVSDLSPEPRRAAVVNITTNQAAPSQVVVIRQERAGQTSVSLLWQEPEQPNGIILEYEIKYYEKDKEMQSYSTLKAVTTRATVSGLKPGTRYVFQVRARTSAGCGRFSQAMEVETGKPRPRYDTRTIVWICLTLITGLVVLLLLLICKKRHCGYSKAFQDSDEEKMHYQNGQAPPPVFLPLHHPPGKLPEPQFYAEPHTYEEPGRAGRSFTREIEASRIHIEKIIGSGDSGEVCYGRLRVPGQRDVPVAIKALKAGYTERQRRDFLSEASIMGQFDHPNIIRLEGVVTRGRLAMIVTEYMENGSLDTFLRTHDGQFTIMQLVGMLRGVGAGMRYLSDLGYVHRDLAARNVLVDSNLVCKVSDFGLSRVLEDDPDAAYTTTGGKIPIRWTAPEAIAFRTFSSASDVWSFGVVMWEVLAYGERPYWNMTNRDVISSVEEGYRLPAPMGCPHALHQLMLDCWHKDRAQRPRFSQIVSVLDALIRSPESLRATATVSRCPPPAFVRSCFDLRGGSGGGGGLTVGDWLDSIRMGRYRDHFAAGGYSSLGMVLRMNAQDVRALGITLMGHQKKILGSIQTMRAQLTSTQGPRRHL

[4] = biological target: Leukocyte tyrosine kinase receptor (Homo sapiens) (UniProt P29376); test: Inhibition of LTK (unknown origin) assessed as residual activity at 1000 nM by KINOMEscan analysis relative to control
[5] = biological target: Serine/threonine-protein kinase Nek6 (Homo sapiens) (UniProt Q9HC98); test: Inhibition of NEK6 (unknown origin) assessed as residual activity at 1000 nM by KINOMEscan analysis relative to control
[6] = biological target: T3, Serine/threonine-protein kinase NLK (Homo sapiens) (UniProt Q9UBE8); test: Inhibition of NLK (unknown origin) assessed as residual activity at 1000 nM by KINOMEscan analysis relative to control
T3 sequence (whole entry): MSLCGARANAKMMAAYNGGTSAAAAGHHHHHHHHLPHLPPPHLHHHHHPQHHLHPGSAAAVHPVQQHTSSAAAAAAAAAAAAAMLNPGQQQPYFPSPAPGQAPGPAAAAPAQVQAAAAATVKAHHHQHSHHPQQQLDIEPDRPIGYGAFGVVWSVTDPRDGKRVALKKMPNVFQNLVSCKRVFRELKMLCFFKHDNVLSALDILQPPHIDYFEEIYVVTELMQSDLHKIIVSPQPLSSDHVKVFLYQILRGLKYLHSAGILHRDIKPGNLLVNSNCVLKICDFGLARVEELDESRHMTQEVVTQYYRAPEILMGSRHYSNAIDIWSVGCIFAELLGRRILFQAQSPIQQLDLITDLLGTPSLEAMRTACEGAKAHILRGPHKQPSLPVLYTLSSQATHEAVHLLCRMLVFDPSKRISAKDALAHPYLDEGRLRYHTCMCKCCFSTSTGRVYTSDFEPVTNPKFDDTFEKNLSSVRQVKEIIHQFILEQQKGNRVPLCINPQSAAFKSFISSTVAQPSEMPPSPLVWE

[7] = biological target: Wee1-like protein kinase 2 (Homo sapiens) (UniProt P0C1S8); test: Inhibition of WEE2 (unknown origin) assessed as residual activity at 1000 nM by KINOMEscan analysis relative to control
[8] = biological target: Tyrosine-protein kinase Yes (Homo sapiens) (UniProt P07947); test: Inhibition of YES (unknown origin) assessed as residual activity at 1000 nM by KINOMEscan analysis relative to control
Tyrosine-protein kinase Yes (Homo sapiens), sequence (P07947 2-543 limits assumed): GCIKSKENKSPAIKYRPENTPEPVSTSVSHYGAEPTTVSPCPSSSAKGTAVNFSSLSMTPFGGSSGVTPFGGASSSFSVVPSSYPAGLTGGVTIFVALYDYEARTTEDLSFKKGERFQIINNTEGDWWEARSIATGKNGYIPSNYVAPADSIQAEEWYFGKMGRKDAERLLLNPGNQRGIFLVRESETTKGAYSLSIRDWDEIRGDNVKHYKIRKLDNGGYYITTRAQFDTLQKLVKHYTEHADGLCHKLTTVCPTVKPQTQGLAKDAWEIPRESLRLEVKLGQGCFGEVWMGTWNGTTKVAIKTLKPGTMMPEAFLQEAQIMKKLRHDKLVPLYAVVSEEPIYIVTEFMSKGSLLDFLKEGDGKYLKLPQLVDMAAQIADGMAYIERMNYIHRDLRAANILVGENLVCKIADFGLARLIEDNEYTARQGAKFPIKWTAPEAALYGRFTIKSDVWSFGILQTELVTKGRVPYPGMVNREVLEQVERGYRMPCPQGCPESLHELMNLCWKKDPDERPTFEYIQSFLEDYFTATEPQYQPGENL

Wee1-like protein kinase 2 (Homo sapiens), sequence (P0C1S8 whole entry, looked up): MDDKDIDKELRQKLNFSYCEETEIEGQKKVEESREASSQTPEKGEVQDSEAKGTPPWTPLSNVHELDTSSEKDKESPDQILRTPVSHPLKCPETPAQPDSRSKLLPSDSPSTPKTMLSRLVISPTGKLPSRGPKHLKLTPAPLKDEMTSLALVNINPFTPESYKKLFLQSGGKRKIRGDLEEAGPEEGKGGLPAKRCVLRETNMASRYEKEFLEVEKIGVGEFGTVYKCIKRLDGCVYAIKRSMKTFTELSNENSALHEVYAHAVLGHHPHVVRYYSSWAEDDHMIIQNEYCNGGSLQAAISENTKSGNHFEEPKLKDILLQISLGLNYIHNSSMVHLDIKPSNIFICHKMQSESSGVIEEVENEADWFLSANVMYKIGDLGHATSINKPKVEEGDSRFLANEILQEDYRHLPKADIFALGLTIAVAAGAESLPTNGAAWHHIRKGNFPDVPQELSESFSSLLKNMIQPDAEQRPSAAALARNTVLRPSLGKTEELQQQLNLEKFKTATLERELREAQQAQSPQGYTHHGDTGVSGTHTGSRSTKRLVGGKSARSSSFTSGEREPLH
Leukocyte tyrosine kinase receptor (Homo sapiens), sequence (P29376 whole entry): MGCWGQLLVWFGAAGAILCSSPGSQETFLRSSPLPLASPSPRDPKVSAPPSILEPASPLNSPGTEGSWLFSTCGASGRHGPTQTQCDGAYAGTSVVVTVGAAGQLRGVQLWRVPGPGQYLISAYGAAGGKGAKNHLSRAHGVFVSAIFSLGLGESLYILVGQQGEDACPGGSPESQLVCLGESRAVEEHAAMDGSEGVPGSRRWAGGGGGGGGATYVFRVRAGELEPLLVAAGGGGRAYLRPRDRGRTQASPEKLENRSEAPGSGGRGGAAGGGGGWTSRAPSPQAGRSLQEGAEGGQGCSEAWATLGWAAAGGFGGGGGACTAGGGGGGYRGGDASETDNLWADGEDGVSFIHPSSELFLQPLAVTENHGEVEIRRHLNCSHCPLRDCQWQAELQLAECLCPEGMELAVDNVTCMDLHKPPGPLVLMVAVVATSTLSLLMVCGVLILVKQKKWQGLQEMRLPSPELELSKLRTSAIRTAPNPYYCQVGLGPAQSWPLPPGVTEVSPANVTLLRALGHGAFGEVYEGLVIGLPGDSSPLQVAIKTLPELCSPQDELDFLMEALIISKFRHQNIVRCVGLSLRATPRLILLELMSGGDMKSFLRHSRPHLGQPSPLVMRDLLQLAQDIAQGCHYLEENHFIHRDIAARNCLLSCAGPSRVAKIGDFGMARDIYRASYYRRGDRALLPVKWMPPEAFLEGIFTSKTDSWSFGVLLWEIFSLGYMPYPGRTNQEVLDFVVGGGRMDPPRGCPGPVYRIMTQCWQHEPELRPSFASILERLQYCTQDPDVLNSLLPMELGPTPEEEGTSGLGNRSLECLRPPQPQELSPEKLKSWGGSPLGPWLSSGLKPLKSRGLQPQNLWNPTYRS
Protein-tyrosine kinase 6 (Homo sapiens), sequence (Q13882 whole entry, looked up): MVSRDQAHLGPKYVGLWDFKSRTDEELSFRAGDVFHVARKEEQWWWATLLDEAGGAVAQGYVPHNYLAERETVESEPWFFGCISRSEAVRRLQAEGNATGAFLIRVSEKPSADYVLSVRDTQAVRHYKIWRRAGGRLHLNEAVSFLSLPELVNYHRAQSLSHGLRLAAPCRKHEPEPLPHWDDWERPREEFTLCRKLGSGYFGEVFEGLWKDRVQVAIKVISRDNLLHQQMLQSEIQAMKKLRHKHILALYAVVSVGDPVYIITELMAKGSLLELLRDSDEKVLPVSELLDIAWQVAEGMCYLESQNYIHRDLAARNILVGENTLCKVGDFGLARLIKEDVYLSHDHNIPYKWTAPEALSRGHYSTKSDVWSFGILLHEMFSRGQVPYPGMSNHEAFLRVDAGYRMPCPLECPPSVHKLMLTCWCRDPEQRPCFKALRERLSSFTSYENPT
Serine/threonine-protein kinase Nek6 (Homo sapiens), sequence (Q9HC98 whole entry): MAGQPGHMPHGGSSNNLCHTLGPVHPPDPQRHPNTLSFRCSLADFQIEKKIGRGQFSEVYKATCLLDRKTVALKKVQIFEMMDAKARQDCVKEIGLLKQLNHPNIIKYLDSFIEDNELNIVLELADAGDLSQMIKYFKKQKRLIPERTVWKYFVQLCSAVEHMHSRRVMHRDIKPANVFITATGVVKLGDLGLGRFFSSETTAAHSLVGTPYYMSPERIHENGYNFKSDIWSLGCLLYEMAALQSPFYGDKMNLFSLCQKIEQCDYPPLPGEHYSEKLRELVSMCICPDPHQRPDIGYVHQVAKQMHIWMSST

| SMILES | Activity [1] [%] | Activity [2] [%] | Activity [3] [%] | Activity [4] [%] | Activity [5] [%] | Activity [6] [%] | Activity [7] [%] | Activity [8] [%] |
| --- | --- | --- | --- | --- | --- | --- | --- | --- |
| COc1cc2ncnc(N[C@H](C)c3cccc4ccccc34)c2cc1OC | 96 | 100 | 94 | 97 | 97 | 86 | 100 | 100 |
| COc1cc2nc(C)nc(N[C@H](C)c3cccc(-c4cn[nH]c4)c3)c2cc1OC | 77 | 57 | 100 | 100 | 93 | 54 | 65 | 67 |
